In patent US10973784B2, “Compositions and methods for treating Alzheimer's disease and Parkinson's disease” (Biotie Therapies, Inc., priority 2016, dated 2021):
Several values for one entry are separate records, joined by “and”; a condition that tells them apart may be missing. Equal entries are not always repeated. Where two headings read alike, the source gives them in different places.

What was measured:
[1] = Pharmacokinetic analysis of SYN120 tablets, multiple dose once daily (Example 9); format: in vivo, human; settings: for Ae % / % Fluctuation / CL renal / half-life: arithmetic mean; for Ae %: urine; for CL renal / Cmax / AUC(0-t) / Tmax / concentration at 14 day / half-life: both sexes, human, oral; for CL renal: plasma and urine, read-out: 0-24 Clr; for Cmax / AUC(0-t) / Tmax / concentration at 14 day / half-life: plasma; for Cmax / AUC(0-t) / concentration at 14 day: geometric mean
Procedure: PK analysis in a multiple dose study was performed on 28 subjects (10 males and 18 females) on day 1 and on 27 subjects (10 males and 17 females) on day 14 who received SYN120 oral tablets. The dosing interval was once daily, approximately 40 minutes after a standard breakfast, for up to 21 days. The subjects were administered the same dose of SYN120 daily at one of the following doses: 100 mg; 300 mg; and 600 mg. The SYN120 oral tablets used in this study were the 50 mg tablets as described in Example 8.
Plasma samples were prepared from blood samples for PK analysis collected on days 1 and 14 at the following time points: 0, 0.5, 1, 1.5, 2, 3, 4, 6, 8, 12, and 24 hrs postdose. Additional blood samples were taken following administration on Day 14 at 32, 36, 48, 72, and 168 hrs (day 15 through day 21). In addition, on days 4 and 10, predose blood samples were collected, while on day 7, blood samples were collected predose and 4 hrs postdose. […] Mean plasma SYN120 concentrations at Day 1, (FIG. 7A and FIG. 7B), and at Day 14 (FIG. 8A and FIG. 8B) are also provided.

[2] = Plasma concentrations of SYN120 at 100 mg QD after titration (Example 10); format: in vivo, human; settings: for Plasma concentration of SYN120, individual samples: 100 mg QD after titration; for Plasma concentration of SYN120, Max / Plasma concentration of SYN120, Median / Plasma concentration of SYN120, Min / Plasma concentration of SYN120, Mean: 100 mg QD
Procedure: Patients taking SYN120 are titrated from a starting dose of 20 mg SYN120 QD for the first 7 days, followed by 50 mg SYN120 QD for the next 7 days, then 100 mg SYN120 QD for the remaining portion of the study. Plasma samples are taken on study weeks 4, 8 and 16, and a shown below in Table 17.

5-HT6 receptor = 5-HT6 receptor (Homo sapiens, UniProt P50406); settings: cited from earlier work
5-HT2B receptor = 5-HT2B receptor (Homo sapiens, UniProt P41595); settings: cited from earlier work
Sequence of 5-HT2B receptor (P41595 whole entry): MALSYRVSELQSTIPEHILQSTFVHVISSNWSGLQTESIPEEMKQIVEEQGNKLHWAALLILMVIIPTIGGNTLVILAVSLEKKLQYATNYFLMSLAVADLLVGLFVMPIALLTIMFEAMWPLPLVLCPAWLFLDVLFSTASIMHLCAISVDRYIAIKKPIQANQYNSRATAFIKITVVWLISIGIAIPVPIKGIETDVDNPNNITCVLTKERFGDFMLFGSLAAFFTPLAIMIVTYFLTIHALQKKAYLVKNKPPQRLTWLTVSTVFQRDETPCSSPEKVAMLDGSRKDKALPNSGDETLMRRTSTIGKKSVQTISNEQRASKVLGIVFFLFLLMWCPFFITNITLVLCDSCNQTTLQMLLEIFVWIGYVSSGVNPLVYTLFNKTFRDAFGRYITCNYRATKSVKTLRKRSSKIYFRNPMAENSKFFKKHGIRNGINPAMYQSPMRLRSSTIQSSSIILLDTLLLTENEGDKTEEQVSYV

Sequence of 5-HT6 receptor (P50406 whole entry): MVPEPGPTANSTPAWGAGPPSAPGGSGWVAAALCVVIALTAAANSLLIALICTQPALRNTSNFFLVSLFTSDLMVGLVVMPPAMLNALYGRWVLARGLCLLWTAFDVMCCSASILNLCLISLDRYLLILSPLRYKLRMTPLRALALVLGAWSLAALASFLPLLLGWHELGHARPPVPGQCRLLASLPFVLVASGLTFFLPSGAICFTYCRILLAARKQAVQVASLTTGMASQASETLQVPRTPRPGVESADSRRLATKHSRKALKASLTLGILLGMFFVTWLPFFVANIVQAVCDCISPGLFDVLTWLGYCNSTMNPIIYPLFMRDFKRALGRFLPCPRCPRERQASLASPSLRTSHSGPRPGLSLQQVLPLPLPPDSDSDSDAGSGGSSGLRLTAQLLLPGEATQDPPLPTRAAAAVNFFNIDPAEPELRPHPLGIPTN

Work on `NC(=O)NC[C@@H]1CCCc2cc(S(=O)(=O)c3cccc(F)c3)ccc21` [SYN120] yielded an Ae % ([1]; Day 1, 100 mg QD) of 0.610%, an Ae % ([1]; Day 1, 300 mg QD) of 0.857% and an Ae % ([1]; Day 1, 600 mg QD) of 0.997%. For the same compound, the “% Fluctuation” value ([1]; Day 14, 100 mg QD) was 177%, the Ae % ([1]; Day 14, 100 mg QD) was 1.15% and the Tlast ([1]; Day 14, 100 mg QD, median) was 168 h. For the same compound, the “% Fluctuation” value ([1]; Day 14, 300 mg QD) was 209%, the Ae % ([1]; Day 14, 300 mg QD) was 0.988% and the Tlast ([1]; Day 14, 300 mg QD, median) was 168 h. The “% Fluctuation” value ([1]; Day 14, 600 mg QD) was 212%, the Ae % ([1]; Day 14, 600 mg QD) was 0.756% and the Tlast ([1]; Day 14, 600 mg QD, median) was 168 h. It also gave a CL renal ([1]; 100 mg, Day 1, 100 mg QD) of 1.25 mL/min, a CL renal ([1]; 100 mg, Day 14, 100 mg QD) of 1.33 mL/min and a CL renal ([1]; 300 mg, Day 1, 300 mg QD) of 1.33 mL/min. The CL renal ([1]; 300 mg, Day 14, 300 mg QD) was 1.34 mL/min, the CL renal ([1]; 600 mg, Day 1, 600 mg QD) was 1.45 mL/min and the CL renal ([1]; 600 mg, Day 14, 600 mg QD) was 1.31 mL/min. The Cmax ([1]; 100 mg, Day 1, 100 mg QD) was 813 ng/mL, the AUC(0-t) ([1]; 100 mg, Day 1, 100 mg QD, read-out: AUC0-24) was 7780 ng·h/mL and the AUC(0-t) ([1]; 100 mg, Day 1, 100 mg QD, read-out: AUC0-last) was 7780 ng·h/mL. The Tmax ([1]; 100 mg, Day 1, 100 mg QD, median, read-out: Tmax) was 4 h, the Cmax ([1]; 100 mg, Day 14, 100 mg QD) was 1240 ng/mL and the AUC(0-t) ([1]; 100 mg, Day 14, 100 mg QD, read-out: AUC0-24) was 14200 ng·h/mL. For the same compound, the AUC(0-t) ([1]; 100 mg, Day 14, 100 mg QD, read-out: AUC0-last) was 19200 ng·h/mL, the concentration at 14 day ([1]; 100 mg, Day 14, 100 mg QD, read-out: Cmin) was 201 ng/mL and the concentration at 14 day ([1]; 100 mg, Day 14, 100 mg QD, read-out: Css) was 591 ng/mL. For the same compound, the Tmax ([1]; 100 mg, Day 14, 100 mg QD, median, read-out: Tmax) was 3 h, the Cmax ([1]; 300 mg, Day 1, 300 mg QD) was 2750 ng/mL and the AUC(0-t) ([1]; 300 mg, Day 1, 300 mg QD, read-out: AUC0-24) was 29500 ng·h/mL. For the same compound, the AUC(0-t) ([1]; 300 mg, Day 1, 300 mg QD, read-out: AUC0-last) was 29500 ng·h/mL, the Tmax ([1]; 300 mg, Day 1, 300 mg QD, median, read-out: Tmax) was 4 h and the Cmax ([1]; 300 mg, Day 14, 300 mg QD) was 3470 ng/mL. The AUC(0-t) ([1]; 300 mg, Day 14, 300 mg QD, read-out: AUC0-24) was 36000 ng·h/mL, the AUC(0-t) ([1]; 300 mg, Day 14, 300 mg QD, read-out: AUC0-last) was 45700 ng·h/mL and the concentration at 14 day ([1]; 300 mg, Day 14, 300 mg QD, read-out: Cmin) was 357 ng/mL. The concentration at 14 day ([1]; 300 mg, Day 14, 300 mg QD, read-out: Css) was 1500 ng/mL, the Tmax ([1]; 300 mg, Day 14, 300 mg QD, median, read-out: Tmax) was 3 h and the Cmax ([1]; 600 mg, Day 1, 600 mg QD) was 5180 ng/mL. The AUC(0-t) ([1]; 600 mg, Day 1, 600 mg QD, read-out: AUC0-24) was 59600 ng·h/mL, the AUC(0-t) ([1]; 600 mg, Day 1, 600 mg QD, read-out: AUC0-last) was 59600 ng·h/mL and the Tmax ([1]; 600 mg, Day 1, 600 mg QD, median, read-out: Tmax) was 4 h. The Cmax ([1]; 600 mg, Day 14, 600 mg QD) was 5460 ng/mL, the AUC(0-t) ([1]; 600 mg, Day 14, 600 mg QD, read-out: AUC0-24) was 56100 ng·h/mL and the AUC(0-t) ([1]; 600 mg, Day 14, 600 mg QD, read-out: AUC0-last) was 74000 ng·h/mL. The concentration at 14 day ([1]; 600 mg, Day 14, 600 mg QD, read-out: Cmin) was 520 ng/mL, the concentration at 14 day ([1]; 600 mg, Day 14, 600 mg QD, read-out: Css) was 2340 ng/mL and the Tmax ([1]; 600 mg, Day 14, 600 mg QD, median, read-out: Tmax) was 3.51 h. For the same compound, the Tmax ([1]; Day 14, across dose groups, read-out: median Tmax) was 3 to 3.51 h, the Tmax ([1]; Study Day 1, each dose group, read-out: median Tmax) was 4 h and the half-life ([1]; Day 14, 100 mg QD) was 15.4 h. For the same compound, the half-life ([1]; Day 14, 300 mg QD) was 15.5 h, the half-life ([1]; Day 14, 600 mg QD, n = 7) was 15 h and the “Plasma concentration of SYN120, individual samples” value ([2]; time range 0.5 h-1.5 h) was 1310 ng/mL and 297 ng/mL and 116 ng/mL and 476 ng/mL and 326 ng/mL and 8.57 ng/mL and 309 ng/mL. For the same compound, the “Plasma concentration of SYN120, individual samples” value ([2]; time range 1.5 h-2.5 h) was 120 ng/mL and 558 ng/mL and 314 ng/mL and 705 ng/mL and 229 ng/mL and 235 ng/mL and 430 ng/mL and 581 ng/mL, the “Plasma concentration of SYN120, individual samples” value ([2]; time range 2.5 h-3.5 h) was 1660 ng/mL and 355 ng/mL and 473 ng/mL and 410 ng/mL and 1220 ng/mL and 1620 ng/mL and 767 ng/mL and the “Plasma concentration of SYN120, individual samples” value ([2]; time range 3.5 h-4.5 h) was 1330 ng/mL and 855 ng/mL and 24.2 ng/mL and 467 ng/mL and 1190 ng/mL and 1470 ng/mL. For the same compound, the “Plasma concentration of SYN120, individual samples” value ([2]; time range 4.5 h-7.5 h) was 1160 ng/mL and 124 ng/mL and 344 ng/mL and 989 ng/mL and 1210 ng/mL and 850 ng/mL, the “Plasma concentration of SYN120, Max” value ([2]; time range 0.5 h-1.5 h) was 1310 ng/mL and the “Plasma concentration of SYN120, Median” value ([2]; time range 0.5 h-1.5 h) was 309 ng/mL. The “Plasma concentration of SYN120, Min” value ([2]; time range 0.5 h-1.5 h) was 8.57 ng/mL, the “Plasma concentration of SYN120, Mean” value ([2]; time range 0.5 h-1.5 h, n 7) was 406.1 ng/mL and the “Plasma concentration of SYN120, Max” value ([2]; time range 1.5 h-2.5 h) was 705 ng/mL. The “Plasma concentration of SYN120, Median” value ([2]; time range 1.5 h-2.5 h) was 372 ng/mL, the “Plasma concentration of SYN120, Min” value ([2]; time range 1.5 h-2.5 h) was 120 ng/mL and the “Plasma concentration of SYN120, Mean” value ([2]; time range 1.5 h-2.5 h, n 8) was 396.5 ng/mL. For the same compound, the “Plasma concentration of SYN120, Max” value ([2]; time range 2.5 h-3.5 h) was 1660 ng/mL, the “Plasma concentration of SYN120, Median” value ([2]; time range 2.5 h-3.5 h) was 767 ng/mL and the “Plasma concentration of SYN120, Min” value ([2]; time range 2.5 h-3.5 h) was 355 ng/mL. The “Plasma concentration of SYN120, Mean” value ([2]; time range 2.5 h-3.5 h, n 7) was 929.3 ng/mL, the “Plasma concentration of SYN120, Max” value ([2]; time range 3.5 h-4.5 h) was 1470 ng/mL and the “Plasma concentration of SYN120, Median” value ([2]; time range 3.5 h-4.5 h) was 1023 ng/mL. The “Plasma concentration of SYN120, Min” value ([2]; time range 3.5 h-4.5 h) was 24.2 ng/mL, the “Plasma concentration of SYN120, Mean” value ([2]; time range 3.5 h-4.5 h, n 6) was 889.4 ng/mL and the “Plasma concentration of SYN120, Max” value ([2]; time range 4.5 h-7.5 h) was 1210 ng/mL. For the same compound, the “Plasma concentration of SYN120, Median” value ([2]; time range 4.5 h-7.5 h) was 920 ng/mL, the “Plasma concentration of SYN120, Min” value ([2]; time range 4.5 h-7.5 h) was 124 ng/mL and the “Plasma concentration of SYN120, Mean” value ([2]; time range 4.5 h-7.5 h, n 6) was 779.5 ng/mL. For the same compound, the “time of peak plasma level after administration” value ([2]; once per day maintenance dosing) was 1 to 4 h, the pKi (5-HT6 receptor) was 9.6 and the pKi (5-HT2B receptor) was 7.7.
